Experiments:
[1] = test system: diethylnitrosamine (DEN)-induced liver fibrosis and liver cancer; test: DEN-induced liver fibrosis and liver cancer model; type: in vivo, Wistar rats
Source text: Specifically, five-to-six weeks old Wistar rats were obtained from the animal center at the National Taiwan University Medical School. The rats were given 100 ppm DEN drinking water, and they were weighed weekly at feeding times. […] The feeding of DEN was continued for 9 weeks, which is sufficient to induce the occurrence of liver cirrhosis and liver cancer. Liver cancers were removed from the rats for cancer recurrence study.

[2] = test system: recurrence of liver cirrhosis and liver cancers after removal of DEN-induced tumor; test: Recurrence model after removal of DEN-induced tumor; type: in vivo, Wistar rats; settings: pirfenidone 200 mg/kg/day
Protocol: Specifically, five-to-six weeks old Wistar rats were obtained from the animal center at the National Taiwan University Medical School. The rats were given 100 ppm DEN drinking water, and they were weighed weekly at feeding times. […] The feeding of DEN was continued for 9 weeks, which is sufficient to induce the occurrence of liver cirrhosis and liver cancer. Liver cancers were removed from the rats for cancer recurrence study. The test samples (GP-T) were tested at two different concentrations and administered to the rats for four weeks (from the ninth to the thirteenth week). Pirfenidone was used as a positive control. In the tests, each group included 6-8 rats. The tests were conducted using the rat model and different concentrations of the GP test samples in the food to assess their effects on liver fibrosis and liver cancer recurrence. Male five-to-six weeks old Wistar rats were obtained from the animal center at the National Taiwan University Medical School. The rats were fed drinking water containing 100 ppm carcinogen, diethylnitrosamine (DEN). During the feeding period, the rats were weighed weekly. The concentrations of DEN were increased according to the body weight increases. After continuous feeding for 9 weeks, DEN was sufficient to induce liver cirrhosis and liver cancer in rats. The liver cancers were removed by surgery after the 9 week period. Then, the rats were treated with two different doses of the test drugs (GP-T) for four weeks (from the ninth week to the thirteenth week). Some rats were given pirfenidone as positive control. In this experiments, each group has n=6-8 rats. This experiment uses a rat model, coupled with feeding the rats with different doses of the test drugs, to evaluate the impacts of the test drugs on the recurrence of liver cirrhosis and liver cancers.

Structure (SMILES) | Survival Rate ([1]; sorafenib 30 mg/kg, 6 weeks, DEN rats) | number of activated astrocytes (α-SMA staining) ([1]; sorafenib group (S), 30 mg/kg) | prophylactic effect on the recurrence of carcinogenesis after tumor removal [2] | hydroxyproline content in liver ([2]; FIG. 14D) | carcinogenesis presented by GST-p(+) density ([2]; four weeks after tumor ablation)
CNC(=O)c1cc(Oc2ccc(NC(=O)Nc3ccc(Cl)c(C(F)(F)F)c3)cc2)ccn1 [Sorafenib] | 100% | significantly reduced number of activated astrocytes |  |  | 
Cc1ccc(=O)n(-c2ccccc2)c1 [pirfenidone] |  |  | no prophylactic effect | decreased significantly | decreased

Reference: US9474777B2, “Plant extract and the process for treating hepatic fibrosis and liver cancer” (Development Center for Biotechnology, priority 2013, dated 2016)
